From patent US9957264B2 (Merck Sharp & Dohme Corp., priority 2013, dated 2018) come the findings set out here.

As usually defined, the IC50 is the midpoint of a concentration-inhibition curve.

For test [1], the target named is JAK1 (recombinant purified GST-tagged catalytic domain) (Homo sapiens (Human), UniProt P23458). In words: Jak Biochemical HTRF Assay (JAK1). To be noted: [ATP] 31.8 μM. The method, boiled down:
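GST-tagged human catalytic domains of JAK1 or JAK2 phosphorylated a biotinylated peptide substrate for 120 min at room temperature after ATP addition. Reaction quenched with EDTA stop buffer containing streptavidin-Dylight 650 and Eu-pY20 antibody; HTRF 665/615 nm ratio normalized to untreated controls, IC50 from 4-parameter fit.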
On the technique in general: TR-FRET usually uses a lanthanide donor and a delayed reading to cut background.

For test [2], the target named is JAK2 (recombinant purified GST-tagged catalytic domain) (Homo sapiens (Human), UniProt O60674). The test is described as follows: Jak Biochemical HTRF Assay (JAK2). To be noted: [ATP] 8.5 μM.
Chain of JAK2 (recombinant purified GST-tagged catalytic domain) (O60674 849-1124): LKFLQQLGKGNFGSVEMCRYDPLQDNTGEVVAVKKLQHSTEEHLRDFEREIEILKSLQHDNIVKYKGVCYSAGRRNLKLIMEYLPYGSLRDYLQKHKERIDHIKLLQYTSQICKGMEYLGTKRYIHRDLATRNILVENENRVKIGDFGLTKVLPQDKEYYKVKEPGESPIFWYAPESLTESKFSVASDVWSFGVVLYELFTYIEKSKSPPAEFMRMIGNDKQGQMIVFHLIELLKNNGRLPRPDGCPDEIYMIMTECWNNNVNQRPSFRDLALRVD

Chain of JAK1 (recombinant purified GST-tagged catalytic domain) (P23458 875-1153): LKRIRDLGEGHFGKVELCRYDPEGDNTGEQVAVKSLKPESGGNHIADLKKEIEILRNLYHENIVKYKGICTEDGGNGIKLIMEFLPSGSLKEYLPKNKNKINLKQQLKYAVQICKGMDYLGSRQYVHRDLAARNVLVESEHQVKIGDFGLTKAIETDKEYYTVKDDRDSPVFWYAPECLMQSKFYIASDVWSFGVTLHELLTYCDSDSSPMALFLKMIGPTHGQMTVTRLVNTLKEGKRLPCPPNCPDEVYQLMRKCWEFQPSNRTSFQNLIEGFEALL

Regarding `CC(C)(C)OC(=O)N1CCC(CC#N)(n2nc(Nc3ccc4c(c3)CN(C3CCN(CC(F)(F)F)CC3)S4(=O)=O)c3c(=O)[nH]ccc32)CC1` [Example 21-15, tert-butyl-4-(cyanomethyl)-4-(3-((1,1-dioxido-2-(1-(2,2,2-trifluoroethyl)piperidin-4-yl)-2,3-dihydrobenzo[d]isothiazol-5-yl)amino)-4-oxo-4,5-dihydro-1H-pyrazolo[4,3-c]pyridin-1-yl)piperidine-1-carboxylate], the half-maximal inhibitory concentration (IC50) was determined as 0.77 nM in test [1] and 0.65 nM in test [2].

Turning to `CC(C)NC(C)(C)c1ccc(Nc2nn([C@]3(CC#N)CC[C@@H](C(=O)OC(C)(C)C)OC3)c3cc[nH]c(=O)c23)cc1` [Example 5-274, (2S,5S)-tert-butyl 5-(cyanomethyl)-5-(3-((4-(2-(isopropylamino)propan-2-yl)phenyl)amino)-4-oxo-4,5-dihydro-1H-pyrazolo[4,3-c]pyridin-1-yl)tetrahydro-2H-pyran-2-carboxylate], the IC50 in test [1] was 0.36 nM; in test [2], 0.26 nM.

As to `CN(C)S(=O)(=O)c1ccc(Nc2nn(C3(CC#N)CCN(C(=O)CC(F)(F)F)CC3)c3cc[nH]c(=O)c23)cc1` [Example 9-2, 4-({1-[4-(cyanomethyl)-1-(3,3,3-trifluoropropanoyl)piperidin-4-yl]-4-oxo-4,5-dihydro-1H-pyrazolo[4,3-c]pyridin-3-yl}amino)-N,N-dimethylbenzenesulfonamide], the half-maximal inhibitory concentration (IC50) in test [1] was found to be 0.08 nM; in test [2], 0.31 nM.

Take `CNS(=O)(=O)c1ccc(Nc2nn(C3(CC#N)CCCC3)c3cc[nH]c(=O)c23)cc1` [Example 5-131, 4-((1-(1-(cyanomethyl)cyclopentyl)-4-oxo-4,5-dihydro-1H-pyrazolo[4,3-c]pyridin-3-yl)amino)-N-methylbenzenesulfonamide]: the 50% inhibitory concentration (IC50) came to 0.25 nM in test [1] and 0.98 nM in test [2].

On to `CC(C)(C)NC(c1ccc(Nc2nn([C@]3(CC#N)CCCOC3)c3cc[nH]c(=O)c23)cc1)C(F)(F)F` (single isomer, unassigned) [Example 5-190, {(3S)-3-[3-({4-[(1S or 1R)-1-(tert-butylamino)-2,2,2-trifluoroethyl]phenyl}amino)-4-oxo-4,5-dihydro-1H-pyrazolo [4,3-c]pyridin-1-yl]tetrahydro-2H-pyran-3-yl}acetonitrile], for which the IC50 turned out to be 0.21 nM in test [1] and 0.38 nM in test [2].

Consider `N#CC[C@]1(n2nc(Nc3ccc(C(N)C(F)(F)F)cc3)c3c(=O)[nH]ccc32)CCCC[C@H]1F` (single isomer, unassigned) [Example 5-177, {(1R,2R)-1-[3-({4-[(1S or 1R)-1-amino-2,2,2-trifluoroethyl]phenyl}amino)-4-oxo-4,5-dihydro-1H-pyrazolo[4,3-c]pyridin-1-yl]-2-fluorocyclohexyl} acetonitrile], for which the IC50 in test [1] came out at 0.09 nM; in test [2] it was 0.16 nM.

As for `CN(C)S(=O)(=O)c1ccc(Nc2nn(C3(CC#N)CCN(C(=O)OCC(C)(C)C)CC3)c3cc[nH]c(=O)c23)cc1` [Example 10-4, neopentyl 4-(cyanomethyl)-4-(3-((4-(N,N-dimethylsulfamoyl)phenyl)amino)-4-oxo-4,5-dihydro-1H-pyrazolo[4,3-c]pyridin-1-yl)piperidine-1-carboxylate], the IC50 was 0.45 nM in test [1] and 3.08 nM in test [2].

Take `CC(C)(C)OC(=O)[C@H]1CC[C@@](CC#N)(n2nc(Nc3ccc([C@H](N)C(F)(F)F)cc3)c3c(=O)[nH]ccc32)CO1` (single isomer, unassigned) [Example 5-52, (2R,5S)-tert-butyl 5-(3-((4-((S or R)-1-amino-2,2,2-trifluoroethyl)phenyl)amino)-4-oxo-4,5-dihydro-1H-pyrazolo[4,3-c]pyridin-1-yl)-5-(cyanomethyl) tetrahydro-2H-pyran-2-carboxylate]: the IC50 in test [1] amounted to 11.7 nM; in test [2], 30.3 nM.

As to `COC1CN([C@H]2CC[C@@](CC#N)(n3nc(Nc4ccc(Cl)c(F)c4)c4c(=O)[nH]ccc43)CC2)C1` [Example 18-23, Cis 2-(1-(3-((4-chloro-3-fluorophenyl)amino)-4-oxo-4,5-dihydro-1H-pyrazolo[4,3-c]pyridin-1-yl)-4-(3-methoxyazetidin-1-yl)cyclohexyl)acetonitrile], the half-inhibitory concentration (IC50) is 125 nM in test [1] and > 1500 nM in test [2].

For `N#CCC1(n2nc(Nc3ccc(F)cc3)c3c(=O)[nH]ccc32)CCNCC1` [Example 6, (4-{3-[(4-fluorophenyl)amino]-4-oxo-4,5-dihydro-1H-pyrazolo[4,3-c]pyridin-1-yl}piperidin-4-yl)acetonitrile], the results for the IC50 in test [1] and in test [2] were 421 nM and > 1500 nM, respectively.

In the case of `CCOC(=O)C(C)(C)C(O)(c1ccc(Nc2nn([C@]3(CC#N)CCCOC3)c3cc[nH]c(=O)c23)cc1)C(F)(F)F` (single isomer, unassigned) [Example 5-113, (S or R)-ethyl 3-(4-((1-((3S)-3-(cyanomethyl)tetrahydro-2H-pyran-3-yl)-4-oxo-4,5-dihydro-1H-pyrazolo[4,3-c]pyridin-3-yl)amino)phenyl)-4,4,4-trifluoro-3-hydroxy-2,2-dimethylbutanoate], the IC50 in test [1] was determined as 0.28 nM; in test [2] it was 0.34 nM.

For `CN(C)CC(=O)N1CCC(CC#N)(n2nc(Nc3ccc(S(=O)(=O)N(C)C)cc3)c3c(=O)[nH]ccc32)CC1` [Example 9-4, 4-({1-[4-(cyanomethyl)-1-(N,N-dimethylglycyl)piperidin-4-yl]-4-oxo-4,5-dihydro-1H-pyrazolo[4,3-c]pyridin-3-yl}amino)-N,N-dimethylbenzenesulfonamide], the half-maximal inhibitory concentration (IC50) in test [1] was 0.65 nM; in test [2] it was 5.17 nM.

As for `CC(C)(C)OC(=O)N1CCC(CC#N)(n2nc(Nc3ccc(C(F)(F)F)cc3)c3c(=O)[nH]ccc32)CC1` [Example 5-8, tert-butyl 4-(cyanomethyl)-4-(4-oxo-3-{[4-(trifluoromethyl)phenyl]amino}-4,5-dihydro-1H-pyrazolo [4,3-c]pyridin-1-yl) piperidine-1-carboxylate], the IC50 came to 1.96 nM in test [1] and 20 nM in test [2].

Turning to `CN(C)S(=O)(=O)c1ccc(Nc2nn(C3(CC#N)CCC(=O)CC3)c3cc[nH]c(=O)c23)cc1` [Example 18-39, 4-((1-(1-(cyanomethyl)-4-oxocyclohexyl)-4-oxo-4,5-dihydro-1H-pyrazolo[4,3-c]pyridin-3-yl)amino)-N,N-dimethylbenzenesulfonamide], the IC50 in test [1] stood at 1.37 nM; in test [2], 1.78 nM.

As for `CN(C)S(=O)(=O)c1ccc(Nc2nn(C3(CC#N)CCN(Cc4cccc(F)c4)CC3)c3cc[nH]c(=O)c23)cc1` [Example 8-8, 4-({1-[4-(cyanomethyl)-1-(3-fluorobenzyl)piperidin-4-yl]-4-oxo-4,5-dihydro-1H-pyrazolo[4,3-c]pyridin-3-yl}amino)-N,N-dimethylbenzenesulfonamide], the IC50 in test [1] was found to be 0.29 nM; in test [2] it was 0.52 nM.

Consider `CC(C)(C)OC(=O)[C@@H]1CC[C@@](CC#N)(n2nc(Nc3ccc4nc(C#N)ccc4c3)c3c(=O)[nH]ccc32)CO1` [Example 5-216, (2S,5S)-tert-butyl 5-(cyanomethyl)-5-(3-((2-cyanoquinolin-6-yl)amino)-4-oxo-4,5-dihydro-1H-pyrazolo[4,3-c]pyridin-1-yl)tetrahydro-2H-pyran-2-carboxylate], for which the IC50 in test [1] turned out to be 0.14 nM; in test [2], 1.16 nM.

With `CC(C)(C)OC(=O)[C@@H]1CC[C@@](CC#N)(n2nc(Nc3ccc([C@@H](N)C(F)(F)F)cc3)c3c(=O)[nH]ccc32)CO1` (single isomer, unassigned) [Example 5-51, (2S,5S)-tert-butyl 5-(3-((4-((R or S)-1-amino-2,2,2-trifluoroethyl)phenyl)amino)-4-oxo-4,5-dihydro-1H-pyrazolo [4,3-c]pyridin-1-yl)-5-(cyanomethyl)tetrahydro-2H-pyran-2-carboxylate], the results for the IC50 in test [1] and in test [2] were 0.18 nM and 0.49 nM, respectively.

As to `CN(C)S(=O)(=O)c1ccc(Nc2nn(C3(CC#N)CCN(Cc4c(F)ccc(F)c4F)CC3)c3cc[nH]c(=O)c23)cc1` [Example 8-11, 4-({1-[4-(cyanomethyl)-1-(2,3,6-trifluorobenzyl)piperidin-4-yl]-4-oxo-4,5-dihydro-1H-pyrazolo[4,3-c]pyridin-3-yl}amino)-N,N-dimethylbenzenesulfonamide], the IC50 in test [1] is 0.24 nM; in test [2], 0.28 nM.

Turning to `CC(c1ccc(Nc2nn([C@]3(CC#N)CC[C@@H](C(=O)OC(C)(C)C)OC3)c3cc[nH]c(=O)c23)cc1)N1CCCC1` (single isomer, unassigned) [Example 5-212, (2S,5S)-tert-butyl 5-(cyanomethyl)-5-(4-oxo-3-((4-((S or R)-1-(pyrrolidin-1-yl)ethyl)phenyl)amino)-4,5-dihydro-1H-pyrazolo [4,3-c]pyridin-1-yl) tetrahydro-2H-pyran-2-carboxylate], the half-maximal inhibitory concentration (IC50) in test [1] is 0.22 nM; in test [2] it was 0.15 nM.

With `CN(C)c1ccc2cc(Nc3nn([C@]4(CC#N)CC[C@@H](C(=O)OC(C)(C)C)OC4)c4cc[nH]c(=O)c34)ccc2n1` [Example 5-222, (2S,5S)-tert-butyl 5-(cyanomethyl)-5-(3-((2-(dimethylamino)quinolin-6-yl)amino)-4-oxo-4,5-dihydro-1H-pyrazolo[4,3-c]pyridin-1-yl)tetrahydro-2H-pyran-2-carboxylate], the half-maximal inhibitory concentration (IC50) in test [1] was determined as 0.13 nM; in test [2], 0.64 nM.

In the case of `CC(C)S(=O)(=O)c1ccc(Nc2nn([C@@]3(CC#N)CCCC[C@H]3F)c3cc[nH]c(=O)c23)cc1` [Example 5-87, {(1R,2R)-2-fluoro-1-[3-({4-[(1-methylethyl)sulfonyl]phenyl}amino)-4-oxo-4,5-dihydro-1H-pyrazolo[4,3-c]pyridin-1-yl]cyclohexyl}acetonitrile], the figures for the half-maximal inhibitory concentration (IC50) in test [1] and in test [2] were 0.04 nM and 0.05 nM, respectively.
